Test results reported in patent publication US11999699B2, “Substituted pyrazole amides” (GRUENENTHAL GMBH, priority 2021, dated 2024).

Target: T1, human NaV1.8 (Homo sapiens, UniProt Q9Y5Y9)
T1 construct: The following NaV1.8 recombinant cell line was used for recordings: HEK-NaV1.8 (NM 006514.1); expressed in transfected cells; host or cells: HEK (recombinant cell line HEK-NaV1.8)
Assay: Electrophysiology: automated whole-cell voltage-clamp (patch clamp, Qube384) recordings of sodium currents in HEK-NaV1.8 cells
Assay type: cell-based
Settings: potency data either taken from inactivated or resting state, read-out: Potency category (human NaV1.8 IC50)
Procedure, shortened: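 Automated whole-cell patch clamp at room temperature on HEK cells expressing human NaV1.8, with 0.3% DMSO vehicle controls. State-dependent protocol from −120 mV tested resting (P1) and half-inactivated (P2, 4 s at V1/2) channels, plus 40-pulse trains at 10 and 20 Hz. Values after ~12 min compound exposure were normalised to baseline and corrected for vehicle run-down; IC50 from a 4-parameter logistic fit, taken from inactivated or resting state.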

T1 sequence (Q9Y5Y9 whole entry): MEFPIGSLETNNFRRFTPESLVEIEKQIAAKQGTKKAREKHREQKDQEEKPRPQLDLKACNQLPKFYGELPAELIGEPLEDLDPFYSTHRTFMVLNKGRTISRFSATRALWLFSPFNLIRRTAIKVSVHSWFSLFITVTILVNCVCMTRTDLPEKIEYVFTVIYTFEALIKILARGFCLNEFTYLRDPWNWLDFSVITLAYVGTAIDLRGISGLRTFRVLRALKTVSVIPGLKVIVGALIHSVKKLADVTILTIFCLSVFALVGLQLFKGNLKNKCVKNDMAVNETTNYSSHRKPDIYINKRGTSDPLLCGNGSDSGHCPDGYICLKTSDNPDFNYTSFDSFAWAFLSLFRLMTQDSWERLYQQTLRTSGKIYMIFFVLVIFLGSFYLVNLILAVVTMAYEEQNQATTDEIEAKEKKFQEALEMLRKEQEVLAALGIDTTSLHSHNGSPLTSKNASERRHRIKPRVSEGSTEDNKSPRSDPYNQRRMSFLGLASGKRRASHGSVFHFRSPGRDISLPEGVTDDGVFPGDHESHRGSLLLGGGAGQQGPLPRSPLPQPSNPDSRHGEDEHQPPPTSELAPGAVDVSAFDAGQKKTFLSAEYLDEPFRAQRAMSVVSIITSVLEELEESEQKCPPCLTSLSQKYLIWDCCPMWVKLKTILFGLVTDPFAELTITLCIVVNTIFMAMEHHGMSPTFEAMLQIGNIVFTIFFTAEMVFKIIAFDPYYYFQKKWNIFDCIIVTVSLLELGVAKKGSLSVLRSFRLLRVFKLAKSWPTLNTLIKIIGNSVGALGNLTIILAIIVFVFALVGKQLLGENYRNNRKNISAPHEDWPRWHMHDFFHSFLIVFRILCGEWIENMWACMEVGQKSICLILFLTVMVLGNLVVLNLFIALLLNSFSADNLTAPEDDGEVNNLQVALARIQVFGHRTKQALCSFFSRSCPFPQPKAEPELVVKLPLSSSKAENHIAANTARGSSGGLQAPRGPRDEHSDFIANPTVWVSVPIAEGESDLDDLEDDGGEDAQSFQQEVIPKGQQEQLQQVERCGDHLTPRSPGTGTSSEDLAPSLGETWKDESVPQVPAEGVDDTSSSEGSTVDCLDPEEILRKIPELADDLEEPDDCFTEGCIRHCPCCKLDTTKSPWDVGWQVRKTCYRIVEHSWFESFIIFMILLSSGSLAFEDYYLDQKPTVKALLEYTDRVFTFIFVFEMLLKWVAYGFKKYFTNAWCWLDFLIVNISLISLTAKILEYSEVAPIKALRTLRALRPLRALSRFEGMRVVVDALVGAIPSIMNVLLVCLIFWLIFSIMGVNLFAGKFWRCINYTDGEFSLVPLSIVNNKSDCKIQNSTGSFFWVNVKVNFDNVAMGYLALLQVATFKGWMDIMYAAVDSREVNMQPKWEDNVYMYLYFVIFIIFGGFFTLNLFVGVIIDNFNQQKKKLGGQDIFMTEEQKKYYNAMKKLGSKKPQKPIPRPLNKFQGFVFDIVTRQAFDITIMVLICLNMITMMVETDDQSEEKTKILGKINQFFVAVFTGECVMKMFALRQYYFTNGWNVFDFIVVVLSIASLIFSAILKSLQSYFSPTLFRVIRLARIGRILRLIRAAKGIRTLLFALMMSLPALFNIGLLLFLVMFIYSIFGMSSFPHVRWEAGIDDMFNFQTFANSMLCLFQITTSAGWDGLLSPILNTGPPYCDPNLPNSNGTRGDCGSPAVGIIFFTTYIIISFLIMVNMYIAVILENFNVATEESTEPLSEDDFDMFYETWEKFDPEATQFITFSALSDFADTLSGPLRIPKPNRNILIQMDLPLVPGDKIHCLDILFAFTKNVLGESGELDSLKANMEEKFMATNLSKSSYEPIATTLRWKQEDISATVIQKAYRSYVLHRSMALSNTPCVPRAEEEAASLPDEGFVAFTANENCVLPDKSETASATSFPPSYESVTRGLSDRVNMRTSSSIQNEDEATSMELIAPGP
T1 sequence (Q9NY72 23-215 partner): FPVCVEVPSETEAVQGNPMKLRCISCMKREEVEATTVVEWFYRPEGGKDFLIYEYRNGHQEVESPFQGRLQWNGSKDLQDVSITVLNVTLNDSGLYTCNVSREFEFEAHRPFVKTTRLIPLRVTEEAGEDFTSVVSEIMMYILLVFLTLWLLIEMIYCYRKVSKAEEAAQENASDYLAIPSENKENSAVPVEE

| IC50 [nM] | SMILES |
| --- | --- |
| 100 to 1000 | Cc1c(C(C)(F)F)nn(C[C@H]2C[C@@H](F)C2)c1C(=O)Nc1ccnc(C(N)=O)c1 [SC-301, 4-(3-(1,1-difluoroethyl)-1-((3-fluorocyclobutyl)methyl)-4-methyl-1H-pyrazole-5-carboxamido)picolinamide] |
| 100 to 1000 | CCc1nn(CC2CC(F)(F)C2)c(C(=O)Nc2ccnc(S(C)(=O)=O)c2)c1C [SC-302, 1-((3,3-difluorocyclobutyl)methyl)-3-ethyl-4-methyl-N-(2-(methylsulfonyl)pyridin-4-yl)-1H-pyrazole-5-carboxamide] |
| ≤ 100 | C[S+]([O-])c1cc(NC(=O)c2c(C(F)(F)F)c(C(C)(F)F)nn2CC2CC(F)(F)C2)ccn1 (centres unmarked) [SC-303, 1-((3,3-difluorocyclobutyl)methyl)-3-(1,1-difluoroethyl)-N-(2-(methylsulfinyl)pyridin-4-yl)-4-(trifluoromethyl)-1H-pyrazole-5-carboxamide] |
| 100 to 1000 | Cc1nn(CC2CCC(F)(F)C2)c(C(=O)Nc2cccc(S(N)(=O)=O)c2)c1OC(F)(F)F (centres unmarked) [SC-304, 1-((3,3-difluorocyclopentyl)methyl)-3-methyl-N-(3-sulfamoyiphenyl)-4-(trifluoromethoxy)-1H-pyrazole-5-carboxamide] |
| 1000 to 10000 | CS(=O)(=O)c1cc(NC(=O)c2c(CC(F)(F)F)c(C3CC3)nn2CC2CCOCC2)ccn1 [SC-305, 3-cyclopropyl-N-(2-(methylsulfonyl)pyridin-4-yl)-1-((tetrahydro-2H-pyran-4-yl)methyl)-4-(2,2,2-trifluoroethyl)-1H-pyrazole-5-carboxamide] |
| 1000 to 10000 | COC1(Cn2nc(C(C)(F)F)c(C)c2C(=O)Nc2ccnc(S(N)(=O)=O)c2)CC1 [SC-308, 3-(1,1-difluoroethyl)-1-((1-methoxycyclopropyl)methyl)-4-methyl-N-(2-sulfamoylpyridin-4-yl)-1H-pyrazole-5-carboxamide] |
| 1000 to 10000 | Cc1c(OC(C)(F)F)nn(CC2CC(F)(F)C2)c1C(=O)Nc1ccnc(C(N)=O)c1 [SC-309, 4-(1-((3,3-difluorocyclobutyl)methyl)-3-(1,1-difluoroethoxy)-4-methyl-1H-pyrazole-5-carboxamido)picolinamide] |
| 100 to 1000 | Cc1c(C(C)(F)F)nn(CC2(F)CC2)c1C(=O)Nc1ccnc(S(N)(=O)=O)c1 [SC-310, 3-(1,1-difluoroethyl)-1-((1-fluorocyclopropyl)methyl)-4-methyl-N-(2-sulfamoylpyridin-4-yl)-lH-pyrazole-5-carboxamide] |
| ≤ 100 | Cc1c(C(C)(F)F)nn(CC2(C(F)F)CC(F)(F)C2)c1C(=O)Nc1ccnc(C(N)=O)c1 [SC-311, 4-(3-(1,1-difluoroethyl)-1-((1-(difluoromethyl)-3,3-difluorocyclobutyl)methyl)-4-methyl-1H-pyrazole-5-carboxamido)picolinamide] |
| ≤ 100 | Cc1c(C(C)(F)F)nn(CC2(C)CC2)c1C(=O)Nc1ccnc(S(N)(=O)=O)c1 [SC-313, 3-(1,1-difluoroethyl)-4-methyl-1-((1-methyleyelopropyl)methyl)-N-(2-sulfamoylpyridin-4-yl)-lH-pyrazole-5-carboxamide] |
| ≤ 100 | Cc1c(C(C)(F)F)nn(CC2C[C@H]2C)c1C(=O)Nc1ccnc(S(N)(=O)=O)c1 (some centres unmarked) [SC-314, 3-(1,1-difluoroethyl)-4-methyl-1-((2-methyleyelopropyl)methyl)-N-(2-sulfamoylpyridin-4-yl)-lH-pyrazole-5-carboxamide] |
| ≤ 100 | Cc1c(C(C)(F)F)nn(CC2(C(F)F)CC(F)(F)C2)c1C(=O)Nc1ccnc(S(N)(=O)=O)c1 [SC-316, 3-(1,1-difluoroethyl)-1-((1-(difluoromethyl)-3,3-difluorocyclobutyl)methyl)-4-methyl-N-(2-sulfamoylpyridin-4-yl)-1H-pyrazole-5-carboxamide] |
| 1000 to 10000 | Cc1c(C(C)(F)F)nn(CC2(C)CCO2)c1C(=O)Nc1ccnc(S(N)(=O)=O)c1 (centres unmarked) [SC-317, 3-(1,1-difluoroethyl)-4-methyl-1-((2-methyloxetan-2-yl)methyl)-N-(2-sulfamoylpyridin-4-yl)-lH-pyrazole-5-carboxamide] |
| 100 to 1000 | Cc1c(OC(F)(F)F)nn(CC2CC(F)(F)C2)c1C(=O)Nc1ccnc(C(N)=O)c1 [SC-318, 4-(1-((3,3-difluorocyclobutyl)methyl)-4-methyl-3-(trifluoromethoxy)-1H-pyrazole-5-carboxamido)picolinamide] |
| ≤ 100 | Cc1c(C(F)(F)F)nn(CC2CCC(F)(F)CC2)c1C(=O)Nc1ccnc(S(N)(=O)=O)c1 [SC-320, 1-((4,4-difluorocyclohexyl)methyl)-4-methyl-N-(2-sulfamoylpyridin-4-yl)-3-(trifluoromethyl)-1H-pyrazole-5-carboxamide] |
| 100 to 1000 | Cc1nn(CC2CCC(F)(F)CC2)c(C(=O)Nc2cnnc(C(N)=O)c2)c1C(F)(F)F [SC-321, 5-(1-((4,4-difluorocyclohexyl)methyl)-3-methyl-4-(trifluoromethyl)-1H-pyrazole-5-carboxamido)pyridazine-3-carboxamide] |
| 1000 to 10000 | CS(=O)(=O)c1cc(NC(=O)c2c(OC(F)F)c(C3CC3)nn2CC2CCOCC2)ccn1 [SC-322, 3-cyclopropyl-4-(difluoromethoxy)-N-(2-(methylsulfonyl)pyridin-4-yl)-1-((tetrahydro-2H-pyran-4-yl)methyl)-1H-pyrazole-5-carboxamide] |
| 100 to 1000 | Cc1c(OC(F)F)nn(CC2CC(F)(F)C2)c1C(=O)Nc1ccnc(S(C)(=O)=O)c1 [SC-323, 1-((3,3-difluorocyclobutyl)methyl)-3-(difluoromethoxy)-4-methyl-N-(2-(methylsulfonyl)pyridin-4-yl)-1H-pyrazole-5-carboxamide] |
| ≤ 100 | NC(=O)c1cc(NC(=O)c2c(C(F)(F)F)c(C(F)F)nn2CC2CC(F)(F)C2)ccn1 [SC-324, 4-(1-((3,3-difluorocyclobutyl)methyl)-3-(difluoromethyl)-4-(trifluoromethyl)-1H-pyrazole-5-carboxamido)picolinamide] |
| ≤ 100 | NC(=O)c1cc(NC(=O)c2c(C(F)(F)F)c(C(F)F)nn2CC2CCC(F)(F)C2)ccn1 (centres unmarked) [SC-325, 4-(1-((3,3-difluorocyclopentyl)methyl)-3-(difluoromethyl)-4-(trifluoromethyl)-1H-pyrazole-5-carboxamido)picolinamide] |
